{"source": "patent US4898863A", "about": "“Heterocyclic carboxamides” (ICI Americas Inc., priority 1986, dated 1990)", "key": {"[1]": {"assay": "overt toxicity / untoward side-effects in dosed laboratory animals", "type": "in vivo, guinea-pig"}, "leukotriene LTD4": {"system": "leukotriene LTD4", "assay": "in vivo guinea-pig aerosol test (leukotriene LTD4 challenge, time of onset of breathing changes)", "details": "Cavia porcellus, oral, read-out: effective dose following oral administration"}}, "data": [{"smiles": "COc1cc(C(=O)NS(=O)(=O)c2ccccc2C)ccc1Cn1cc(CCC(=O)N2CCCC2)c2ccc(C(=O)NCC3CCCC3)cc21", "note": "[Example 8, N-[4-[6-(N-Cyclopentylmethylcarbamoyl)-3-[2-(pyrrolidinocarbonyl)ethyl]indol-1-ylmethyl]-3-methoxybenzoyl]-2-methylbenzesulphonamide]", "values": [{"measurement": "oral dose showing no sign of overt toxicity", "setting": "[1]", "value": 30, "unit": "mmol/kg"}, {"measurement": "minimal effective dose", "setting": "leukotriene LTD4", "value": 2000, "unit": "µmol/kg"}]}]}
